Experimental data as given in ChEMBL document CHEMBL5257049, “Interconvertible Pyridone Alkaloids from the Marine-Derived Fungus Penicillium oxalicum QDU1” (J Nat Prod, 2023).

Tested on: RAW264.7
Assay: Antiinflammatory activity in mouse RAW264.7 cells assessed as inhibition of LPS-stimulated NO production preincubated for 3 hrs followed by LPS stimulation and measured after 24 hrs by Griess reagent based assay
Type: functional, cell-based

| SMILES | IC50 |
| --- | --- |
| CC(/C=C/[C@@H]1Oc2c(-c3ccc(O)cc3)c[nH]c(=O)c2[C@@H](O)[C@H]1C)=C\[C@H](C)[C@H](C)O | > 20 µM |
| CC[C@H](C)/C=C(C)/C=C/[C@H]1Oc2c(-c3ccc(O)cc3)c[nH]c(=O)c2[C@H](OC)[C@@H]1C | > 20 µM |
| CC(/C=C/[C@@H]1Oc2c(-c3ccc(O)cc3)c[nH]c(=O)c2[C@@H](O)[C@H]1C)=C\[C@H](C)[C@@H](C)O | > 20 µM |
| CC[C@H](C)/C=C(C)/C=C/[C@H]1Oc2c(-c3ccc(O)cc3)c[nH]c(=O)c2[C@H](O)[C@@H]1C | > 20 µM |
| CC(/C=C/C=C(C)/C(O)=C1/C(=O)N[C@H]([C@@H](O)c2ccc(O)cc2)C1=O)=C\[C@H](C)[C@@H](C)O | > 20 µM |
| CC(/C=C/C=C(C)/C(O)=C1/C(=O)N[C@@H]([C@@H](O)c2ccc(O)cc2)C1=O)=C\[C@H](C)[C@@H](C)O | > 20 µM |
| CC(/C=C/[C@@H]1Oc2c(-c3ccc(O)cc3)c[nH]c(=O)c2[C@H](O)[C@H]1C)=C\[C@H](C)[C@@H](C)O | > 20 µM |
| CC[C@H](C)/C=C(C)/C=C/[C@H]1Oc2c(-c3ccc(O)cc3)c[nH]c(=O)c2[C@@H](O)[C@@H]1C | 19 µM |
| CC[C@H](C)/C=C(C)/C=C/[C@H]1Oc2c(-c3ccc(O)cc3)c[nH]c(=O)c2[C@H](O)[C@H]1C | 17 µM |
| CO[C@@H]1c2c(c(-c3ccc(O)cc3)c[nH]c2=O)O[C@@H](/C=C/C(C)=C/[C@H](C)[C@H](C)O)[C@@H]1C | 18 µM |

Further lines, results first:

| IC50 | SMILES |
| --- | --- |
| 17 µM | CO[C@@H]1c2c(c(-c3ccc(O)cc3)c[nH]c2=O)O[C@H](/C=C/C(C)=C/[C@H](C)[C@@H](C)O)[C@@H]1C |
| 0.62 µM | COc1ccc2c(c1)c(CC(=O)O)c(C)n2C(=O)c1ccc(Cl)cc1 [INDOMETHACIN] |
| 9.2 µM | CC[C@H](C)/C=C(C)/C=C/[C@H]1Oc2c(-c3ccc(O)cc3)c[nH]c(=O)c2[C@H](OC)[C@H]1C |
| 14 µM | CC(/C=C/C=C(C)/C(O)=C1/C(=O)N/C(=C\c2ccc(O)cc2)C1=O)=C\[C@H](C)[C@@H](C)O |
| 15 µM | CO[C@@H]1c2c(c(-c3ccc(O)cc3)c[nH]c2=O)O[C@@H](/C=C/C(C)=C/[C@H](C)[C@@H](C)O)[C@@H]1C |
